Test results taken from ChEMBL document CHEMBL1139737, “Distachyasin: A new antioxidant metabolite from the leaves of Carex distachya” (Bioorg Med Chem Lett, 2006).

Tests used:
Type in all cases: functional
[1] = Hydrogen peroxide radical scavenging activity at 0.1 mg/ml
[2] = Superoxide radical scavenging activity at 0.5 mg/ml
[3] = Inhibition of TBARS formation
[4] = Nitric oxide radical scavenging activity
[5] = Inhibition of TBARS formation at 0.5 mg/ml
[6] = Hydrogen peroxide radical scavenging activity at 0.2 mg/ml
[7] = Nitric oxide radical scavenging activity assessed as reduction in nitrite concentration at 0.5 mg/ml; set-up: scale not given: the % may be the effect or the level left

In the case of `COC1=CC(=O)[C@@]2(O)C[C@H]3[C@H](c4ccccc4C3(C)C)[C@@H](O)C2=C1`, the Activity [1] is reported as 32%, the Activity [2] is reported as 60% and the Activity [3] is reported as “Dose-dependent effect”. The Activity [4] was “Dose-dependent effect”, the inhibition [5] was 59% and the Activity [6] was 39%. It also gave an Activity [7] of 10.7%.
